Measured values reported in article PMC4178217, “Quinoline 3-sulfonamides inhibit lactate dehydrogenase A and reverse aerobic glycolysis in cancer cells” (Cancer & Metabolism, 2013).
“And” between values parts separate entries of the source, which are not always exact repeats. Identical values can stand only once.

Test system: Snu398 cells
Details: Snu-398 conditioned medium, 10 μM, 24 h
Protocol: Ten million Snu398 or HepG2 cells per flask were plated in R10 medium in T150 tissue culture flasks and allowed to attach overnight. The following morning, medium was replaced with medium containing either DMSO or 10 μM LDHA inhibitor, and cells were incubated for 24 h at 37°C. The conditioned medium was collected and cells were washed, lifted by trypsinization and pelleted. Both medium and cell samples were submitted for mass spectroscopy (MS) analysis of over 500 individual metabolites. All samples were prepared in replicates of five.

COc1ncc(-c2ccc3c(Nc4cc(C(=O)O)cc(C5CCCC5)c4)c(S(=O)(=O)NC4CC4)cnc3c2)c(OC)n1 [Compound 2]
1.34: fold change X - 09008
0.97: fold change 3-(4-hydroxyphenyl)lactate | fold change HEPES | fold change X - 12799 | fold change acetylcarnitine | fold change biotin | fold change choline | fold change valerylcarnitine
0.90: fold change 1-palmitoleoylglycerophosphocholine* | fold change 4-acetamidobutanoate | fold change glycochenodeoxycholate | fold change glycylglycine | fold change tryptophan
1.10: fold change X - 12117 | fold change X - 12792 | fold change X - 15558 | fold change X - 15562 | fold change X - 17430 | fold change glycerol | fold change kynurenate | fold change urea
0.95: fold change N1-methylguanosine | fold change X - 16103 | fold change citrulline | fold change cysteine sulfinic acid | fold change deoxycarnitine | fold change glycerol 3-phosphate (G3P) | fold change leucine | fold change malate | fold change phenylacetylglycine | fold change propionylcarnitine | fold change pyridoxate | fold change valine
1.05: fold change 1-oleoylglycerophosphocholine | fold change 3-methyl-2-oxobutyrate | fold change X - 09026 | fold change beta-hydroxypyruvate | fold change glutamate
2.54: fold change X - 13581
1.20: fold change X - 16200 | fold change alanine | fold change uridine
1.32: fold change X - 10476
0.96: fold change X - 12216 | fold change X - 12435 | fold change X - 13117 | fold change X - 17112 | fold change aspartylleucine | fold change erythronate* | fold change glycylvaline | fold change isoleucine | fold change p-cresol sulfate | fold change palmitoyl sphingomyelin | fold change taurodeoxycholate | fold change threitol | fold change threonine
0.74: fold change asparagine | fold change gamma-glutamylisoleucine*
0.76: fold change butyrylcarnitine
1.12: fold change X - 15808 | fold change thiamin (Vitamin B1)
1.76: fold change X - 03090
0.28: fold change X - 02952
0.84: fold change X - 14588 | fold change glycylleucine | fold change serine
0.91: fold change N6-carbamoylthreonyladenosine | fold change X - 06126 | fold change tyrosine
0.94: fold change X - 11787 | fold change X - 12749 | fold change X - 13166 | fold change alanylglutamine | fold change heme* | fold change lactate | fold change methionine
1.15: fold change Isobar: 2-propylpentanoic acid, 2-ethylhexanoic acid | fold change glutamine | fold change glycerate
1.42: fold change 2-stearoylglycerophosphocholine*
1.73: fold change X - 14056
1.38: fold change X - 08889
1.19: fold change 1-stearoylglycerophosphocholine | fold change 5-oxoproline | fold change X - 11081 | fold change X - 15678 | fold change X - 16439
0.77: fold change 4-guanidinobutanoate
0.79: fold change N-acetylneuraminate
1.33: fold change X - 04135
1.08: fold change allantoin
1.35: fold change X - 13491
0.80: fold change 2'-O-methylguanosine | fold change X - 13115 | fold change ornithine | fold change tetradecanedioate
0.87: fold change X - 10740 | fold change X - 11533 | fold change X - 13483 | fold change nicotinamide
1.09: fold change X - 13553 | fold change arabitol | fold change aspartate | fold change ethanolamine
1.21: fold change 4-methyl-2-oxopentanoate | fold change X - 13104 | fold change X - 15559
0.51: fold change lysine
1.00: fold change X - 12339 | fold change X - 12729 | fold change X - 12944 | fold change X - 13496 | fold change acetylphosphate | fold change betaine | fold change folate | fold change phenol sulfate
3.15: fold change X - 04357
1.11: fold change 6'-sialyllactose | fold change N-acetylornithine | fold change X - 12776 | fold change X - 13507
1.02: fold change 3-dehydrocarnitine* | fold change X - 02973 | fold change citrate | fold change glycocholate | fold change indolelactate | fold change isovalerylcarnitine | fold change pipecolate | fold change pseudouridine | fold change pyridoxine (Vitamin B6) | fold change riboflavin (Vitamin B2)
1.30: fold change dimethylarginine (SDMA + ADMA)
0.89: fold change X - 11593 | fold change X - 12013 | fold change docosapentaenoate (n3 DPA; 22:5n3) | fold change gamma-glutamylleucine | fold change phenylalanine | fold change scyllo-inositol | fold change taurocholate
1.06: fold change 3-indoxyl sulfate | fold change glycine | fold change pro-hydroxy-pro | fold change ribitol | fold change trans-4-hydroxyproline
3 and 2.66: fold change pyruvate
1.04: fold change X - 11315 | fold change caprylate (8:0)
1.26: fold change 2-palmitoylglycerophosphocholine*
1.18: fold change 2-hydroxyglutarate | fold change X - 08172 | fold change X - 15563 | fold change gamma-glutamylphenylalanine
1.01: fold change 1-palmitoylglycerophosphocholine | fold change 2-methylbutyroylcarnitine | fold change N1-methyladenosine | fold change X - 05907 | fold change X - 12015 | fold change X - 13110 | fold change arachidonate (20:4n6) | fold change caproate (6:0) | fold change catechol sulfate | fold change creatine | fold change cysteine | fold change erythritol | fold change fructose | fold change histidine | fold change homostachydrine* | fold change phosphate
0.69: fold change X - 10869
1.45: fold change X - 10475 | fold change X - 14574
0.82: fold change X - 16116 | fold change mannitol | fold change putrescine
1.07: fold change creatinine | fold change glucose | fold change hexadecanedioate | fold change kynurenine
0.81: fold change X - 06911
0.99: fold change 2-aminobutyrate | fold change 2-hydroxybutyrate (AHB) | fold change N-acetylaspartate (NAA) | fold change X - 12602 | fold change fumarate | fold change glycyltyrosine | fold change phenol red | fold change uracil
0.86: fold change X - 13857 | fold change beta-alanine | fold change glycerophosphorylcholine (GPC)
1.13: fold change 2-methylbutyrylglycine | fold change proline | fold change xylitol
0.93: fold change beta-hydroxyisovalerate | fold change carnitine | fold change cyclo(leu-ala)
0.68: fold change isovalerate
1.41: fold change cysteine-glutathione disulfide
1.17: fold change X - 04133
1.14: fold change X - 04148
0.98: fold change 2-oleoylglycerophosphocholine* | fold change C-glycosyltryptophan* | fold change X - 08895 | fold change X - 13100 | fold change X - 13103 | fold change arginine | fold change hippurate | fold change myo-inositol | fold change p-aminobenzoate (PABA) | fold change pantothenate | fold change sorbitol | fold change succinate
1.24: fold change X - 13494
1.03: fold change 3-methyl-2-oxovalerate | fold change X - 16206 | fold change X - 16444 | fold change dimethyl sulfoxide* | fold change docosahexaenoate (DHA; 22:6n3) | fold change isobutyrylcarnitine | fold change serotonin (5HT)
2.02: fold change X - 12786
1.25: fold change X - 04015
0.37: fold change X - 04252
0.85: fold change gamma-glutamylvaline | fold change hydroquinone | fold change lysylleucine
0.42: fold change X - 10634
